Among the test systems are SN12C renal; EKVX NSCLC; SNB-75 CNS; RPMI-8226 leukemia; OVCAR-3 ovarian; SNB-19 CNS; UACC-62 melanoma; CCRF-CEM leukemia; HCC-2998 colon; IGROV1 ovarian.
Holding throughout (experiment): growth of human tumour cells (NCI), 48 h

This is an account of results in PubChem BioAssay (NCI).

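Where inhibition never reached the appropriate level, the endpoint shown equals the highest concentration tested. Otherwise, values were interpolated linearly from a five-concentration, 48-hour dose response in 96-well plates. Here, GI50 denotes the concentration required for 50% inhibition of growth. Definition used: TGI = concentration required for complete inhibition of growth.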 Some results are limits rather than exact numbers.

Consider `COc1ccc(C(=O)Nc2ncc(Cc3cccc(Cl)c3)s2)cc1OC`, for which the GI50 was 1.33 µM in the assay with SN12C renal; 0.693 µM with EKVX NSCLC; 0.405 µM in the assay on SNB-75 CNS; 0.474 µM in the assay on RPMI-8226 leukemia; 0.368 µM in the assay on OVCAR-3 ovarian; 0.689 µM in the assay on SNB-19 CNS. In addition, the GI50 is 0.0173 µM in the assay with UACC-62 melanoma, 0.626 µM in the assay with CCRF-CEM leukemia, 0.134 µM in the assay on HCC-2998 colon and 0.525 µM with IGROV1 ovarian. Besides, the TGI was over 100 µM in the assay on SN12C renal; over 100 µM in the assay on EKVX NSCLC; 8.23 µM in the assay on RPMI-8226 leukemia; 9.71 µM in the assay on OVCAR-3 ovarian; over 100 µM with SNB-19 CNS; over 100 µM with UACC-62 melanoma. Besides, the TGI in the assay with CCRF-CEM leukemia was over 100 µM; in the assay with HCC-2998 colon, over 44.1 µM; in the assay on IGROV1 ovarian, over 100 µM.
In the case of `Cc1ccc(NC(=O)c2ccc(CN3CCN(C)CC3)cc2)cc1Nc1nccc(-c2cccnc2)n1`, the GI50 with SN12C renal is 30.7 µM; in the assay on EKVX NSCLC it was 26.6 µM; with SNB-75 CNS, 18.7 µM; with RPMI-8226 leukemia, 7.56 µM; in the assay with OVCAR-3 ovarian it was 31.1 µM; with SNB-19 CNS, 36.1 µM. Also, the GI50 in the assay on UACC-62 melanoma is 19.2 µM; in the assay on CCRF-CEM leukemia, 18.4 µM; with HCC-2998 colon, 21.3 µM; with IGROV1 ovarian it was 20.5 µM. Besides, the TGI is over 100 µM with SN12C renal; 92.1 µM in the assay on EKVX NSCLC; 34.2 µM with SNB-75 CNS; 28.1 µM in the assay on RPMI-8226 leukemia; 72.9 µM in the assay on OVCAR-3 ovarian; over 100 µM in the assay on SNB-19 CNS. The TGI was 40.5 µM with UACC-62 melanoma, 71.1 µM with CCRF-CEM leukemia, 38.5 µM in the assay with HCC-2998 colon and 45.7 µM in the assay on IGROV1 ovarian.
With `COC(=O)C1=Cc2cc(OC)c(OC)c(OC)c2[C@H](c2cc(OC)c(OC)c(OC)c2)C1C(=O)OC` (some centres not stated), the TGI in the assay with SN12C renal, in the assay on EKVX NSCLC, in the assay on SNB-75 CNS, with RPMI-8226 leukemia, with OVCAR-3 ovarian and in the assay on SNB-19 CNS was over 100 µM throughout. The TGI in the assay with UACC-62 melanoma, in the assay on CCRF-CEM leukemia, in the assay with HCC-2998 colon and in the assay with IGROV1 ovarian was over 100 µM each time.
As to `COc1ccc(N=Cc2c(O)ccc3c2oc2cc(Cl)c(O)c(Cl)c23)cc1`, the GI50 with SN12C renal was 19.3 µM; in the assay on EKVX NSCLC, 10.7 µM; in the assay on SNB-75 CNS, 12.7 µM; in the assay on RPMI-8226 leukemia, 4.83 µM; in the assay on OVCAR-3 ovarian it was 6.91 µM; in the assay on SNB-19 CNS, 13.9 µM. For the same compound, the GI50 in the assay with UACC-62 melanoma is 10.3 µM; in the assay with CCRF-CEM leukemia, 4.5 µM; with HCC-2998 colon, 15 µM; with IGROV1 ovarian, 14.7 µM. The TGI with SN12C renal turned out to be 63.6 µM; with EKVX NSCLC it was 38 µM; in the assay with SNB-75 CNS, 48.8 µM; with RPMI-8226 leukemia it was 30.2 µM; in the assay on OVCAR-3 ovarian, 22.3 µM; with SNB-19 CNS it was 79.8 µM. Also, the TGI in the assay with UACC-62 melanoma was 33.7 µM; in the assay with CCRF-CEM leukemia, 31.8 µM; in the assay with HCC-2998 colon, 29.3 µM; in the assay on IGROV1 ovarian it was 43.3 µM.
For `C=C=C(C(=O)OC)S(=O)c1ccccc1[N+](=O)[O-]` (configuration not stated), the TGI in the assay on SN12C renal, in the assay on EKVX NSCLC, in the assay with SNB-75 CNS, with RPMI-8226 leukemia, in the assay on OVCAR-3 ovarian and in the assay on SNB-19 CNS was over 100 µM in each case. Further, the TGI with UACC-62 melanoma was over 100 µM; with CCRF-CEM leukemia it was 77 µM; in the assay on HCC-2998 colon, over 100 µM; in the assay on IGROV1 ovarian, over 100 µM.
Consider `CCOC(=O)c1ccccc1OC(=O)NNc1ccccc1`, for which the GI50 with SN12C renal was 34.9 µM; with EKVX NSCLC, 6.07 µM; in the assay on SNB-75 CNS, over 60.4 µM; in the assay on RPMI-8226 leukemia, 1.11 µM; with OVCAR-3 ovarian it was 16.3 µM; in the assay on SNB-19 CNS, over 51.6 µM. In addition, the GI50 in the assay on UACC-62 melanoma was 0.269 µM; with CCRF-CEM leukemia, 1.8 µM; in the assay on HCC-2998 colon it was 0.583 µM; in the assay on IGROV1 ovarian, 33.9 µM. Moreover, the TGI in the assay on SN12C renal, in the assay on EKVX NSCLC, in the assay with SNB-75 CNS, in the assay with RPMI-8226 leukemia, with OVCAR-3 ovarian and in the assay on SNB-19 CNS was over 100 µM each time. In addition, the TGI in the assay on UACC-62 melanoma was over 28.2 µM; with CCRF-CEM leukemia, over 100 µM; with IGROV1 ovarian, over 100 µM.
As to `CN(C)c1ccc(/C=C/C(=O)[O-])cc1.CN(C)c1ccc(/C=C/C(=O)[O-])cc1.[Cu+2]`, the TGI in the assay on SN12C renal, in the assay on EKVX NSCLC, in the assay with SNB-75 CNS, in the assay on RPMI-8226 leukemia, with OVCAR-3 ovarian and in the assay on SNB-19 CNS was over 100 µM throughout. The TGI with UACC-62 melanoma is over 62.9 µM; in the assay with CCRF-CEM leukemia, over 100 µM; in the assay on HCC-2998 colon, over 100 µM; in the assay with IGROV1 ovarian it was over 100 µM.
As to `CCOC(=O)[C@@H](C)C[C@H](Cc1ccccc1)NC(=O)c1nc([C@@H](C[C@H](C(C)C)N(C)C(=O)[C@@H](NC(=O)[C@H]2CCCCN2C)C(C)C)OC(C)=O)sc1CCOCc1ccccc1`, the GI50 in the assay with SN12C renal is 0.0706 µM; in the assay with EKVX NSCLC it was 0.314 µM; with SNB-75 CNS, 0.0433 µM; in the assay with RPMI-8226 leukemia, 0.107 µM; in the assay with OVCAR-3 ovarian, 0.0396 µM; with SNB-19 CNS, 0.0926 µM. Besides, the GI50 in the assay on UACC-62 melanoma was 0.0372 µM; with CCRF-CEM leukemia, 0.0795 µM; in the assay on HCC-2998 colon, 0.119 µM; in the assay on IGROV1 ovarian, 0.0995 µM. Besides, the TGI in the assay with SN12C renal is 1.55 µM; in the assay with EKVX NSCLC it was over 11.1 µM; in the assay on SNB-75 CNS, 2.76 µM; with RPMI-8226 leukemia, 2.53 µM; in the assay with SNB-19 CNS, 4.34 µM; in the assay on UACC-62 melanoma, 1.69 µM. The TGI in the assay on CCRF-CEM leukemia is over 6.52 µM; with HCC-2998 colon, 1.13 µM; with IGROV1 ovarian, 2.81 µM.
Consider `C[C@]12CC[C@@H]3c4cc(OC(F)F)c(O)cc4CC[C@H]3[C@@H]1CC[C@@H]2OS(N)(=O)=O`, for which the GI50 in the assay with SN12C renal is 1.02 µM; in the assay with EKVX NSCLC, 1.51 µM; with SNB-75 CNS, 0.23 µM; with RPMI-8226 leukemia, 0.568 µM; in the assay with OVCAR-3 ovarian, 0.365 µM; in the assay with SNB-19 CNS it was 0.551 µM. For the same compound, the GI50 is 0.403 µM with UACC-62 melanoma, 0.393 µM in the assay on CCRF-CEM leukemia, 1.94 µM with HCC-2998 colon and 0.687 µM in the assay on IGROV1 ovarian. For the same compound, the TGI in the assay with SN12C renal was 70.5 µM; in the assay on EKVX NSCLC, over 100 µM; in the assay with SNB-75 CNS it was 0.945 µM; in the assay on RPMI-8226 leukemia, 46.9 µM; in the assay with OVCAR-3 ovarian, 16.6 µM; in the assay with SNB-19 CNS, over 100 µM. For the same compound, the TGI in the assay on UACC-62 melanoma was 18.2 µM; in the assay with CCRF-CEM leukemia it was over 100 µM; in the assay with HCC-2998 colon, 33.4 µM; in the assay with IGROV1 ovarian, over 100 µM.
